Assay results from US8258140B2 (Astrazeneca AB, priority 2009, dated 2012).

Target: T1, Androgen Receptor (AR) in the LNCaP prostate carcinoma cell line (Homo sapiens, UniProt P10275, T878A)
T1 construct: cell based immuno-fluorescence assay using the LNCaP prostate epithelial cell line; host or cells: LNCaP clone FGC
T1 sequence (P10275 1-920 T878A): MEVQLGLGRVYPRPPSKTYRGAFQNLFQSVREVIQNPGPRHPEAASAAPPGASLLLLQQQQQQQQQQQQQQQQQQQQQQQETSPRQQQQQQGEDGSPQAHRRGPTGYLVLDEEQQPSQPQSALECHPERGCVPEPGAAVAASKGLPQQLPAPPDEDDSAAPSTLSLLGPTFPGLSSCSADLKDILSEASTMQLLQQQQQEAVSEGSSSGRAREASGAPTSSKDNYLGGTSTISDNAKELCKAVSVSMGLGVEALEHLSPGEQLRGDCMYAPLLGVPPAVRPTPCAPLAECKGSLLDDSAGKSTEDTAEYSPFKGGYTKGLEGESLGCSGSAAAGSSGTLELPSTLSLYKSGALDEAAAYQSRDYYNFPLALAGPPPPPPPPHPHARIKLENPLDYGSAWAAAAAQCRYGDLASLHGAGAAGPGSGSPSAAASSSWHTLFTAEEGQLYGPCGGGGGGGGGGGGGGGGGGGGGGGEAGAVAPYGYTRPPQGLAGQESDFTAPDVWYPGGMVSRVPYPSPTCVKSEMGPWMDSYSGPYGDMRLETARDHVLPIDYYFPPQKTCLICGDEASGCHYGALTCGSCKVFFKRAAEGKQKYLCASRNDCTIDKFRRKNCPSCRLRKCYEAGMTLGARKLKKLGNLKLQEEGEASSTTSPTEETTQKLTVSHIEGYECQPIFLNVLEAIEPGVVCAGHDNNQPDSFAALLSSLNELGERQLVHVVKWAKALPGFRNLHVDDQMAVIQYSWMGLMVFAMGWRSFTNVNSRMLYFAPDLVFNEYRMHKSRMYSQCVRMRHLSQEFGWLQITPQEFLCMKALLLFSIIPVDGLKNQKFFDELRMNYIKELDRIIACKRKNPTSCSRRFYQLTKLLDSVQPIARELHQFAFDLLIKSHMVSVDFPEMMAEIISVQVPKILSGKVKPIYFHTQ
Test: LNCaP Androgen Receptor Down-Regulation Cell Assay (immunofluorescence end point)
Assay type: cell-based
Settings: LNCaP cells, compound incubation 20-22 hours, concentration giving 50% reduction of the AR signal
Description: The ability of compounds to reduce Androgen Receptor (AR) numbers was assessed in a cell based immuno-fluorescence assay using the LNCaP prostate epithelial cell line.
This immunofluorescence end point assay measures the ability of a test compound to down-regulate and reduce measured levels of the AR in the LNCaP prostate carcinoma cell line (LNCaP clone FGC (CRL-1740) obtained from the American Type Culture Collection (ATCC)).
LNCaP cells were cultured in Growth Medium (phenol red free Roswell Park Memorial Institute (RPMI) 1640 (Invitrogen Code no. 11835-063) containing 2 mM L-Glutamine (Invitrogen Code no. 25030-024) and 1% (v/v) Penicillin/Streptomycin (10000 units/ml Penicillin and 10000 μg/ml of Streptomycin utilising penicillin G (sodium salt) and streptomycin sulphate: prepared in normal saline, Invitrogen Code no. 15140122) and 10% (v/v) foetal bovine serum (FBS)) in a 5% CO2 air incubator at 37° C. Cells for assay were harvested from T175 stock flasks by washing once in PBS (phosphate buffered saline, pH 7.4) (Invitrogen Code no. 14190-094) and harvested using 5 mls of 1× Trypsin/ethylaminediaminetetraacetic acid (EDTA) (10× Trypsin-EDTA, 5.0 g/L Trypsin, 2.0 g/L of EDTA.4Na and 8.5 g/L of NaCl, without Phenol Red, Invitrogen Code no. 15400-054) diluted in PBS solution. A 5 ml volume of Growth Medium was added to each flask (as above except that 5% (v/v) charcoal stripped FBS (HyClone Code no. SH30068.03) was included instead of 10% (v/v) FBS). Cells were syringed at least twice using a sterile 18 G×1.5″ (1.2×40 mm) broad gauge needle and cell density was measured using a haemocytometer. Cells were further diluted in Growth Medium plus 5% (v/v) charcoal stripped FBS and seeded at a density of 6.5×10^3 cells per well (in 90 ul) into transparent, black, tissue culture treated 96 well plates (Packard, No. 6005182).
Test data reported herein was generated using two different compounds preparation and dosing methods. In method (1) a 10 mM compound stock solution in 100% (v/v) DMSO was serially diluted in 4-fold steps in 100% (v/v) DMSO using a Thermo Scientific Matrix SerialMate. The diluted compounds were then further diluted 1 in 30 in assay media using a Thermo Scientific Matrix PlateMate and a 10 μl aliquot of this dilution was dosed to cells manually using a multi-channel pipette. In method (2) starting with a 10 mM compound stock solution, the Labcyte Echo 550 was used to generate a compound concentration response set diluted in 30 μl of assay media. The Echo 550 is a liquid handler that uses acoustic technology to perform direct microplate-to-microplate transfers of DMSO compound solutions. The system can be programmed to transfer volumes as low as 2.5 nL in multiple increments between microplates and in so doing generates a serial dilution of compound which is then back-filled to normalise the DMSO concentration across the dilution range. A 10 μl volume of diluted compound is then dosed to cells using a Thermo Scientific Matrix PlateMate.
Plates were incubated overnight at 37° C., 5% CO2. Wells were then dosed with compound prepared by one of the 2 methods above and further incubated for 20-22 hours at 37° C., 5% CO2. Plates were fixed by the addition of 20 μl of 10% (v/v) formaldehyde solution (in PBS) to each well (final formaldehyde conc.=1.67% (v/v)) and left at room temperature for 10 mins. This fixative solution was removed and cells were washed with 250 μl of PBS/0.05% (v/v) Tween 20 (PBST) using an automated plate washer. This process was then repeated twice more.
Immunostaining was performed at room temperature. Cells were permeabilised by the addition of 35 μl of PBS containing 0.5% Tween 20 and incubated for 1 hour at room temperature. Permeabilisation solution was removed and cells were washed with 250 μl of PBST using an automated plate washer. This process was then repeated twice more. […]

| Molecule | IC50 [µM] |
| --- | --- |
| CC(=O)N1CCN(CCOc2ccc(C3CCN(C4=Nn5c(nnc5C(F)(F)F)CC4)CC3)cc2)C[C@@H]1C [Example 52, 6-[4-(4-{2-[(3S)-4-acetyl-3-methylpiperazin-1-yl]ethoxy}phenyl)piperidin-1-yl]-3-(trifluoromethyl)-7,8-dihydro[1,2,4]triazolo[4,3-b]pyridazine] | 0.32 |
| COCCN(C)C(=O)CCCOc1ccc(C2CCN(C3=Nn4c(nnc4C(F)(F)F)CC3)CC2)cc1 [Example 23, N-(2-methoxyethyl)-N-methyl-4-(4-{1-[3-(trifluoromethyl)-7,8-dihydro[1,2,4]triazolo[4,3-b]pyridazin-6-yl]piperidin-4-yl}phenoxy)butanamide] | 1.3 |
| FC(F)(F)c1nnc2n1N=C(N1CC=C(c3c[nH]c4ccccc34)CC1)CC2 [Example 2, 6-[4-(1H-indol-3-yl)-5,6-dihydropyridin-1(2H)-yl]-3-(trifluoromethyl)-7,8-dihydro-[1,2,4]triazolo[4,3-b]pyridazine] | 3.2 |
| C[C@H](COc1ccc(C2CCN(C3=Nn4c(nnc4C(F)(F)F)CC3)CC2)cc1)N1CCN(C)C(=O)C1 (single isomer, unassigned) [Example 56] | 0.38 |
| C[C@@H](COc1ccc(C2CCN(C3=Nn4c(nnc4C(F)(F)F)CC3)CC2)cc1)N1CCN(C)C(=O)C1 (single isomer, unassigned) [Example 55] | 0.18 |
| Cc1cc(C)n(CCOc2ccc(C3CCN(C4=Nn5c(nnc5C(F)(F)F)CC4)CC3)cc2)n1 [Example 43, 6-(4-{4-[2-(3,5-dimethyl-1H-pyrazol-1-yl)ethoxy]phenyl}piperidin-1-yl)-3-(trifluoromethyl)-7,8-dihydro[1,2,4]triazolo[4,3-b]pyridazine] | 1 |
| CC(=O)N1CCN([C@H](C)COc2ccc(C3CCN(C4=Nn5c(nnc5C(F)(F)F)CC4)CC3)cc2)CC1 (single isomer, unassigned) [Example 53] | 0.18 |
| CS(=O)(=O)N1CCN(CCCOc2ccc(N3CCN(C4=Nn5c(nnc5C(F)(F)F)CC4)CC3)cc2)CC1 [Example 31] | 18 |
| Fc1ccc(C(F)F)c(CN2CCN(C3=Nn4c(nnc4C(F)(F)F)CC3)CC2)c1 [Example 10, 6-[4-[2-(difluoromethyl)-5-fluorobenzyl]piperazin-1-yl]-3-(trifluoromethyl)-7,8-dihydro[1,2,4]triazolo[4,3-b]pyridazine] | 1 |
| N#Cc1ccc2[nH]cc(CN3CCN(C4=Nn5c(nnc5C(F)(F)F)CC4)CC3)c2c1 [Example 13, 3-({4-[3-(trifluoromethyl)-7,8-dihydro[1,2,4]triazolo[4,3-b]pyridazin-6-yl]piperazin-1-yl}methyl)-1H-indole-5-carbonitrile] | > 11 |
| 6-(4-{4-[2-(1H-imidazol-1-yl)ethoxy]phenyl}piperidin-1-yl)-3-(trifluoromethyl)-7,8-dihydro[1,2,4]triazolo[4,3-b]pyridazine [Example 41] | 2.9 |
| CN(CCO)C(=O)COc1ccc(C2CCN(C3=Nn4c(nnc4C(F)(F)F)CC3)CC2)cc1 [Example 21, N-(2-hydroxyethyl)-N-methyl-2-(4-{1-[3-(trifluoromethyl)-7,8-dihydro[1,2,4]triazolo[4,3-b]pyridazin-6-yl]piperidin-4-yl}phenoxy)acetamide] | 26 |
| FC(F)(F)c1nnc2n1N=C(N1CCN(Cc3c[nH]c4ccccc34)CC1)CC2 [Example 11, 6-[4-(1H-indol-3-ylmethyl)piperazin-1-yl]-3-(trifluoromethyl)-7,8-dihydro[1,2,4]triazolo[4,3-b]pyridazine] | 8.6 |
| CC(=O)N1CCN(CCOc2ccc(N3CCN(C4=Nn5c(nnc5C(F)(F)F)CC4)CC3)cc2)CC1 [Example 32, 6-(4-{4-[2-(4-acetylpiperazin-1-yl)ethoxy]phenyl}piperazin-1-yl)-3-(trifluoromethyl)-7,8-dihydro[1,2,4]triazolo[4,3-b]pyridazine] | 20 |
| CN(C)C(=O)COc1ccc(C2CCN(C3=Nn4c(nnc4C(F)(F)F)CC3)CC2)cc1 [Example 20, N,N-dimethyl-2-(4-{1-[3-(trifluoromethyl)-7,8-dihydro[1,2,4]triazolo[4,3-b]pyridazin-6-yl]piperidin-4-yl}phenoxy)acetamide] | 4.1 |
| FC(F)(F)c1cccc(CN2CCN(C3=Nn4c(nnc4C(F)(F)F)CC3)CC2)c1 [Example 8, 3-(trifluoromethyl)-6-{4-[3-(trifluoromethyl)benzyl]piperazin-1-yl}-7,8-dihydro[1,2,4]triazolo[4,3-b]pyridazine] | 2.7 |
| Cn1nccc1CCOc1ccc(C2CCN(C3=Nn4c(nnc4C(F)(F)F)CC3)CC2)cc1 [Example 15, 6-[4-[4-[2-(1-methyl-1H-pyrazol-5-yl)ethoxy]phenyl]piperidin-1-yl]-3-(trifluoromethyl)-7,8-dihydro[1,2,4]triazolo[4,3-b]pyridazine] | 0.94 |
| C[C@H]1C(=O)N(C)CCN1CCOc1ccc(C2CCN(C3=Nn4c(nnc4C(F)(F)F)CC3)CC2)cc1 [Example 50, (3S)-1,3-dimethyl-4-[2-(4-{1-[3-(trifluoromethyl)-7,8-dihydro[1,2,4]triazolo[4,3-b]pyridazin-6-yl]piperidin-4-yl}phenoxy)ethyl]piperazin-2-one] | 0.76 |
| CCc1nccn1CCOc1ccc(C2CCN(C3=Nn4c(nnc4C(F)(F)F)CC3)CC2)cc1 [Example 42, 6-(4-{4-[2-(2-ethyl-1H-imidazol-1-yl)ethoxy]phenyl}piperidin-1-yl)-3-(trifluormethyl)-7,8-dihydro[1,2,4]triazolo[4,3-b]pyridazine] | 0.66 |
| CC(=O)N1CCN(CCCOc2ccc(N3CCN(C4=Nn5c(nnc5C(F)(F)F)CC4)CC3)cc2)CC1 [Example 29, 6-(4-{4-[3-(4-acetylpiperazin-1-yl)propoxy]phenyl}piperazin-1-yl)-3-(trifluoromethyl)-7,8-dihydro[1,2,4]triazolo[4,3-b]pyridazine] | 10 |
